Test results taken from patent US11560372B2, “Heterocyclic compounds useful as modulators of acetylcholine receptors” (TAKEDA PHARMACEUTICAL COMPANY LIMITED, priority 2017, dated 2023).

Molecular target: T1, MDR1 (Homo sapiens, UniProt P08183)
T1 construct: expressed in transfected cells
Test: MDR1 membrane permeability test
Type: in vitro ADME
Conditions: pH 7.4, efflux ratio (ER), Papp B to A / A to B, human MDR1-expressing LLC-PK1 cells, read-out: MDR1 substrate screening 1 μM (MDRSUB1)/Ratio (NUMBER)
Experimental: MDR1 Membrane Permeability Test
When MDR1 is expressed in excess in LLC-PK1 cell, which is a polar cell, MDR1 is localized in apical membrane (A), thus promoting transcellular transport from the basement membrane side (B) toward direction A. When a ratio to the transcellular transport in the opposite direction is taken and a ratio to a control cell in which a mock vector has been introduced is further taken, an efflux ratio of MDR1 to simple diffusion (corrected efflux ratio) is calculated. Similarly, when a brain/plasma concentration ratio in Mdr1(−/−) mouse is divided by a brain/plasma concentration ratio in wild-type mouse, an efflux ratio of Mdr1 to simple diffusion in BBB (Kp, brain ratio, higher value means lower central nervous system permeability) is calculated. Adachi Y. et al. (Reference 1) has reported a positive correlation between corrected efflux ratio and Kp, brain ratio (FIG. 5(C)), and efflux ratio in MDR1 expressing cell and Kp, brain ratio (FIG. 5(B)).
To confirm the central nervous system permeability of the compounds of the present invention, a MDR1 membrane permeability test was performed by the following method.
Human MDR1-expressing LLC-PK1 cells were cultured according to the report of Takeuchi et al. (Reference 2). Human MDR1-expressing LLC-PK1 cells were cultured in 10% fetal bovine serum (Invitrogen), 500 μg/ml G418 (Invitrogen), 150 ng/ml colchicine-containing M199 medium (Invitrogen) under 5% CO2 conditions at 37° C.
Transcellular transport was performed according to the report of Sugimoto et al. (Reference 3). The cells were cultured for 3 days on HTS Transwell (registered trademark) 96 well permeable support (pore size 0.4 μm, 0.143 cm^2 surface area, Corning Life Sciences) having polyethylene terephthalate membrane on which the cells had been seeded at 3.45×10^4 cells/well. After preincubation in M199 medium (containing 10 mmol/L HEPES, 1% BSA, pH 7.4) for 30 min, a drug solution (10 μmol/L digoxin, 200 μmol/L LY, […]) dissolved in M199 medium was added to the apical side or basolateral side of the Transwell by 75 or 250 μL each and the cells were cultured under 5% CO2 conditions at 37° C. After 1 hr, the sample was collected from the side opposite to the side where the drug solution was added, and the concentration of the test compound was measured by LC-MS/MS. As an internal standard substance, 100 ng/mL alprenolol and diclofenac were used. The analysis conditions were as follows.
Papp, A to B and Papp, B to A (apparent permeability) were calculated from the formula (1), and the efflux ratio (ER) was calculated from the formula (2).

T1 sequence (P08183 whole entry): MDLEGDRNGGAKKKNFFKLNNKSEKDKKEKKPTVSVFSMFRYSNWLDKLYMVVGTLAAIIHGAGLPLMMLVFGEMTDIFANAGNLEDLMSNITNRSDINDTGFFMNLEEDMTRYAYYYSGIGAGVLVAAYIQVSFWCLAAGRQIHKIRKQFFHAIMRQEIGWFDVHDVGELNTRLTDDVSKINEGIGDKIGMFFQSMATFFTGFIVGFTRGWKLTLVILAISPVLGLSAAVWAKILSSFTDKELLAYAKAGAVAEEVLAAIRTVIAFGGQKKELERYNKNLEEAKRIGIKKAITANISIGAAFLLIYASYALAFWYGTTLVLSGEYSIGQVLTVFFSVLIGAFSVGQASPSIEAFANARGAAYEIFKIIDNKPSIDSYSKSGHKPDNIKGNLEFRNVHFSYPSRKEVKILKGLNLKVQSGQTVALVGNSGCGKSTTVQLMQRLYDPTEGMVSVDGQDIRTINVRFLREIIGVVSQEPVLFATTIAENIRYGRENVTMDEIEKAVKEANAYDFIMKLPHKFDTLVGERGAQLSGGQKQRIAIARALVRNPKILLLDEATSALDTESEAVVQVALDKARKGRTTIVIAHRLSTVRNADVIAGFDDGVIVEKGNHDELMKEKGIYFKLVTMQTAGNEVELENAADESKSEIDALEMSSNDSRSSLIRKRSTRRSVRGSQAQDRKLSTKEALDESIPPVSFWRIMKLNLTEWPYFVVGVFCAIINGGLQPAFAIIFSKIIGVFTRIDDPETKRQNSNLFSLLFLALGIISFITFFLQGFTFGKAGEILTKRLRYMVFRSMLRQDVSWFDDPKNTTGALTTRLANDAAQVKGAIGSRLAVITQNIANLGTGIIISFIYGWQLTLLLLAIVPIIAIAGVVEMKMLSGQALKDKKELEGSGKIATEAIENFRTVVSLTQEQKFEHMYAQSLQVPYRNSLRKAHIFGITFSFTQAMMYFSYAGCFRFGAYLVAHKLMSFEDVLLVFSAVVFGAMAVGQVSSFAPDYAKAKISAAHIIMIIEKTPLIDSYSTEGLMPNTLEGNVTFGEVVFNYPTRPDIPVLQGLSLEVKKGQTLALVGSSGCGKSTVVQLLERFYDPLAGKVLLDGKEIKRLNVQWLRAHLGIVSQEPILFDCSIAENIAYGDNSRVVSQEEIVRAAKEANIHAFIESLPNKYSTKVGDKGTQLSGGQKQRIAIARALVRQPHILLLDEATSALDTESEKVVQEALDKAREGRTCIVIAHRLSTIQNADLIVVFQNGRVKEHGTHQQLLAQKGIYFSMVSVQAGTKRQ

Row | efflux ratio at 1 hr, 1 μM | SMILES
1 | 15 | COCCCNC(=O)c1ccc(Cc2cc3c(=O)n([C@H]4CCOC[C@@H]4O)cnc3c(C)c2C)cc1 [Example 38, 1,5-anhydro-2,3-dideoxy-3-(6-(4-((3-methoxypropyl)carbamoyl)benzyl)-7,8-dimethyl-4-oxoquinazolin-3 (4H)-yl)-L-threo-pentitol]
2 | 12 | Cc1c(Cc2ccc(C(=O)N3CC(O)C3)cc2)cc2c(=O)n([C@H]3CCOC[C@@H]3O)cnc2c1C [Example 40, 1,5-anhydro-2,3-dideoxy-3-(6-(4-((3-hydroxyazetidin-1-yl)carbonyl)benzyl)-7,8-dimethyl-4-oxoquinazolin-3 (4H)-yl)-L-threo-pentitol]
3 | 5.9 | Cc1c(Cc2ccc(C(=O)NC34CC(C3)C4)cc2)cc2c(=O)n([C@H]3CCOC[C@@H]3O)cnc2c1C [Example 42, 1,5-anhydro-3-(6-(4-(bicyclo[1.1.1]penta-1-ylcarbamoyl)benzyl)-7,8-dimethyl-4-oxoquinazolin-3 (4H)-yl)-2,3-dideoxy-L-threo-pentitol]
4 | 12 | Cc1c(Cc2ccc(C(=O)NC3(C)CC3)cc2)cc2c(=O)n([C@H]3CCOC[C@@H]3O)cnc2c1C [Example 43, 1,5-anhydro-2,3-dideoxy-3-(7,8-dimethyl-6-(4-((1-methylcyclopropyl)carbamoyl)-benzyl)-4-oxoquinazolin-3 (4H)-yl)-L-threo-pentitol]
5 | 22 | Cc1c(Cc2ccc(C(=O)NC3CC3)cc2)cc2c(=O)n([C@H]3CCOC[C@@H]3O)cnc2c1C [Example 44, 1,5-anhydro-3-(6-(4-(cyclopropylcarbamoyl)benzyl)-7,8-dimethyl-4-oxoquinazolin-3 (4H)-yl)-2,3-dideoxy-L-threo pentitol]
6 | 23 | Cc1c(Cc2ccc(C(=O)NCC3CCCO3)cc2)cc2c(=O)n([C@H]3CCOC[C@@H]3O)cnc2c1C (stereo partly drawn) [Example 45, 1,5-anhydro-2,3-dideoxy-3-(7,8-dimethyl-4-oxo-6-(4-((tetrahydrofuran-2-ylmethyl)carbamoyl)benzyl)quinazolin-3 (4H)-yl)-L-threo-pentitol]
7 | 18 | Cc1c(Cc2ccc(C(=O)NC3CC(F)C3)cc2)cc2c(=O)n([C@H]3CCOC[C@@H]3O)cnc2c1C (stereo partly drawn) [Example 46, 1,5-anhydro-2,3-dideoxy-3-(6-(4-((3-fluorocyclobutyl)-carbamoyl)benzyl)-7,8-dimethyl-4-oxoquinazolin-3 (4H)-yl)-L-threo-pentitol]
8 | 24 | Cc1c(Cc2ccc(C(=O)NCCN3CCOCC3)cc2)cc2c(=O)n([C@H]3CCOC[C@@H]3O)cnc2c1C [Example 47, 1,5-anhydro-2,3-dideoxy-3-(7,8-dimethyl-6-(4-((2-(morpholin-4-yl)ethyl)carbamoyl)benzyl)-4-oxoquinazolin-3 (4H)-yl)-L-threo-pentitol]
9 | 24 | Cc1c(Cc2ccc(C(=O)NC(C)(C)CO)cc2)cc2c(=O)n([C@H]3CCOC[C@@H]3O)cnc2c1C [Example 48, 1,5-anhydro-2,3-dideoxy-3-(6-(4-((1-hydroxy-2-methylpropan-2-yl)carbamoyl)benzyl)-7,8-dimethyl-4-oxoquinazolin-3 (4H)-yl)-L-threo-pentitol]
10 | 27 | Cc1c(Cc2ccc(C(=O)NCC3CCOCC3)cc2)cc2c(=O)n([C@H]3CCOC[C@@H]3O)cnc2c1C [Example 51, 1,5-anhydro-2,3-dideoxy-3-(7,8-dimethyl-4-oxo-6-(4-((tetrahydro-2H-pyran-4-ylmethyl)carbamoyl)-benzyl)quinazolin-3 (4H)-yl)-L-threo-pentitol]
11 | 8.3 | Cc1c(Cc2ccc(C(=O)NCCC(F)(F)F)cc2)cc2c(=O)n([C@H]3CCOC[C@@H]3O)cnc2c1C [Example 53, 1,5-anhydro-2,3-dideoxy-3-(7,8-dimethyl-4-oxo-6-(4-((3,3,3-trifluoropropyl)carbamoyl)-benzyl)quinazolin-3 (4H)-yl)-L-threo-pentitol]
12 | 5.3 | Cc1c(Cc2ccc(C(=O)NCCF)c(F)c2)cc2c(=O)n([C@H]3CCOC[C@@H]3O)cnc2c1C [Example 67, 1,5-anhydro-2,3-dideoxy-3-(6-(3-fluoro-4-((2-fluoroethyl)carbamoyl)benzyl)-7,8-dimethyl-4-oxoquinazolin-3 (4H)-yl)-L-threo-pentitol]

The remaining lines, values behind:

Row | SMILES | efflux ratio at 1 hr, 1 μM
13 | Cc1c(Cc2ccc(C(=O)N3CC(C(F)F)C3)cc2)cc2c(=O)n([C@H]3CCOC[C@@H]3O)cnc2c1C [Example 52, 1,5-anhydro-2,3-dideoxy-3-(6-(4-((3-(difluoromethyl)azetidin-1-yl)carbonyl)benzyl)-7,8-dimethyl-4-oxoquinazolin-3 (4H)-yl)-L-threo-pentitol] | 18
14 | CNC(=O)c1ccc(Cc2cc3c(=O)n([C@H]4CCOC[C@@H]4O)nnc3c(C)c2C)cc1F [Example 55, 1,5-anhydro-2,3-dideoxy-3-(6-(3-fluoro-4-(methylcarbamoyl)benzyl)-7,8-dimethyl-4-oxo-1,2,3-benzotriazin-3 (4H)-yl)-L-threo-pentitol] | 3.2
15 | CNC(=O)c1ccc(Cc2cc3c(=O)n([C@H]4CCOC[C@@H]4O)cnc3cc2OC)cc1F [Example 57, 1,5-anhydro-2,3-dideoxy-3-(6-(3-fluoro-4-(methylcarbamoyl)benzyl)-7-methoxy-4-oxoquinazolin-3 (4H)-yl)-L-threo-pentitol] | 16
16 | COc1cc2ncn([C@H]3CCOC[C@@H]3O)c(=O)c2cc1Cc1ccc(-c2ccn(C)n2)nc1 [Example 63, 1,5-anhydro-2,3-dideoxy-3-(7-methoxy-6-((6-(1-methyl-1H-pyrazol-3-yl)pyridin-3-yl)methyl)-4-oxoquinazolin-3 (4H)-yl)-L-threo-pentitol] | 35
17 | COc1cc2ncn([C@H]3CCOC[C@@H]3O)c(=O)c2cc1Cc1ccc(-c2cn(C)nn2)nc1 [Example 64, 1,5-anhydro-2,3-dideoxy-3-(7-methoxy-6-((6-(1-methyl-1H-1,2,3-triazol-4-yl)pyridin-3-yl)methyl)-4-oxoquinazolin-3 (4H)-yl)-L-threo-pentitol] | 36
18 | Cc1c(Cc2ccc(C(=O)NCCCS(C)(=O)=O)c(F)c2)cc2c(=O)n([C@H]3CCOC[C@@H]3O)cnc2c1C [Example 70, 1,5-anhydro-2,3-dideoxy-3-(6-(3-fluoro-4-((3-(methylsulfonyl)propyl)-carbamoyl)benzyl)-7,8-dimethyl-4-oxoquinazolin-3 (4H)-yl)-L-threo-pentitol] | 13
19 | Cc1c(Cc2ccc(-c3cnn(C(C)(C)C)c3)nc2)cc2c(=O)n([C@H]3CCOC[C@@H]3O)cnc2c1C [Example 72, 1,5-anhydro-3-(6-((6-(1-tert-butyl-1H-pyrazol-4-yl)pyridin-3-yl)methyl)-7,8-dimethyl-4-oxoquinazolin-3(4H)-yl)-2,3-dideoxy-L-threo-pentitol] | 2.9
20 | Cc1c(Cc2ccc(-c3cnn(CC(F)(F)F)c3)nc2)cc2c(=O)n([C@H]3CCOC[C@@H]3O)cnc2c1C [Example 74, 1,5-anhydro-2,3-dideoxy-3-(7,8-dimethyl-4-oxo-6-((6-(1-(2,2,2-trifluoroethyl)-1H-pyrazol-4-yl)pyridin-3-yl)methyl)quinazolin-3(4H)-yl)-L-threo-pentitol] | 7.1
21 | Cc1c(Cc2ccc(C(=O)NCCN3CCCC3)c(F)c2)cc2c(=O)n([C@H]3CCOC[C@@H]3O)cnc2c1C [Example 78, 1,5-anhydro-2,3-dideoxy-3-(6-(3-fluoro-4-((2-(pyrrolidin-1-yl)ethyl)carbamoyl)benzyl)-7,8-dimethyl-4-oxoquinazolin-3 (4H)-yl)-L-threo-pentitol] | 56
22 | Cc1c(Cc2ccc(-c3cnn(CC(=O)N(C)C)c3)nc2)cc2c(=O)n([C@H]3CCOC[C@@H]3O)cnc2c1C [Example 82, 1,5-anhydro-2,3-dideoxy-3-(6-((6-(1-(2-(dimethylamino)-2-oxoethyl)-1H-pyrazol-4-yl)pyridin-3-yl)methyl)-7,8-dimethyl-4-oxoquinazolin-3(4H)-yl)-L-threo-pentitol] | > 18
23 | Cc1c(Cc2ccc(C(=O)N[C@H]3CCOC[C@@H]3O)c(F)c2)cc2c(=O)n([C@H]3CCOC[C@@H]3O)cnc2c1C [Example 88, 2-fluoro-N-((3R,4S)-3-hydroxytetrahydro-2H-pyran-4-yl)-4-((3-((3R,4S)-3-hydroxytetrahydro-2H-pyran-4-yl)-7,8-dimethyl-4-oxo-3,4-dihydroquinazolin-6-yl)methyl)benzamide] | 16
